In PubChem BioAssay AID248 (DTP/NCI, 2004):
Values joined by “and” are separate entries in the source; they are usually repeats but may differ in a detail not shown here. Equal entries are not always repeated. Toxic doses and inconclusive results are not listed. No stated cut-off is given here; in the data, active means T/C of 150% or more; inactive means T/C below 125%.

Test system: L1210 leukemia ip in BDF1 mice, survival T/C
Experiment: NCI In Vivo Anticancer Drug Screen. Data for tumor model L1210 Leukemia (intraperitoneal) in B6D2F1 (BDF1) mice
Details: endpoint: mean survival time, higher = longer survival
Procedure, shortened: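 Value reflects the ratio of survival in compound-treated mice to survival in vehicle-treated controls, with both groups carrying the same transplanted tumor.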

[1] = dose: 100.0 mg/kg/injection, schedule: Q04DX002 (ip), vehicle: Klucel (hydroxypropylcellulose) (HPC)
[2] = dose: 200.0 mg/kg/injection, schedule: Q04DX002 (ip), vehicle: Klucel (hydroxypropylcellulose) (HPC)
[3] = dose: 400.0 mg/kg/injection, schedule: Q04DX002 (ip), vehicle: Klucel (hydroxypropylcellulose) (HPC)
[4] = dose: 50.0 mg/kg/injection, schedule: Q01DX001 (ip), vehicle: carboxymethylcellulose (CMC)

Measured: T/C

CC(=O)Nc1cc(Cl)c([N+](=O)[O-])cc1C
inactive: [1] 110 % of control | [2] 113 % of control | [3] 103 % of control

Cc1cc(C)n(/N=C/c2ccccn2)c(=O)c1C#N
inactive: dose: 75.0 mg/kg/injection, schedule: Q04DX003 (ip), vehicle: Klucel (hydroxypropylcellulose) (HPC) 94 % of control | dose: 100.0 mg/kg/injection, schedule: Q01DX001 (ip), vehicle: Klucel (hydroxypropylcellulose) (HPC) 97 % of control | dose: 150.0 mg/kg/injection, schedule: Q04DX003 (ip), vehicle: Klucel (hydroxypropylcellulose) (HPC) 97 % of control | dose: 200.0 mg/kg/injection, schedule: Q01DX001 (ip), vehicle: Klucel (hydroxypropylcellulose) (HPC) 97 % of control | dose: 300.0 mg/kg/injection, schedule: Q04DX003 (ip), vehicle: Klucel (hydroxypropylcellulose) (HPC) 100 % of control | dose: 400.0 mg/kg/injection, schedule: Q01DX001 (ip), vehicle: Klucel (hydroxypropylcellulose) (HPC) 102 % of control

O=C1C(=O)c2ccccc2C(O)=C1c1ccccc1
inactive: [4] 114 % of control

C/C=C\C(C)C(C)C (stereo not drawn)
inactive: dose: 50.0 mg/kg/injection, schedule: Q01DX009 (ip), vehicle: saline 93 % of control | dose: 100.0 mg/kg/injection, schedule: Q01DX009 (ip), vehicle: saline 97 % of control | dose: 200.0 mg/kg/injection, schedule: Q01DX009 (ip), vehicle: saline 93 % of control

O=C(CS(=O)(=O)C/C(=N\Nc1ccc([N+](=O)[O-])cc1)c1ccccc1)c1ccccc1
inactive: dose: 100.0 mg/kg/injection, schedule: Q04DX003 (ip), vehicle: saline 101 % of control | dose: 200.0 mg/kg/injection, schedule: Q04DX003 (ip), vehicle: saline 113 % of control | dose: 400.0 mg/kg/injection, schedule: Q04DX003 (ip), vehicle: saline 104 % of control

COc1cc2c(cc1OC)N=Cc1cccn1C2
inactive: dose: 25.0 mg/kg/injection, schedule: Q04DX002 (ip), vehicle: saline with Tween-80 94 % of control | dose: 50.0 mg/kg/injection, schedule: Q04DX002 (ip), vehicle: saline with Tween-80 97 % of control | dose: 100.0 mg/kg/injection, schedule: Q04DX002 (ip), vehicle: saline with Tween-80 90 % of control

CC(=O)Nc1cccc(C(F)(F)F)c1
inactive: dose: 25.0 mg/kg/injection, schedule: Q01DX009 (ip), vehicle: Klucel (hydroxypropylcellulose) (HPC) 101 % of control | dose: 50.0 mg/kg/injection, schedule: Q01DX009 (ip), vehicle: Klucel (hydroxypropylcellulose) (HPC) 96 % of control | dose: 100.0 mg/kg/injection, schedule: Q01DX009 (ip), vehicle: Klucel (hydroxypropylcellulose) (HPC) 101 % of control

CC1CP(=O)(Cc2ccccc2)C(c2ccccc2)=C1O (stereo not drawn)
inactive: dose: 100.0 mg/kg/injection, schedule: Q04DX003 (ip), vehicle: Klucel (hydroxypropylcellulose) (HPC) 90 % of control | dose: 200.0 mg/kg/injection, schedule: Q04DX003 (ip), vehicle: Klucel (hydroxypropylcellulose) (HPC) 93 % of control | dose: 400.0 mg/kg/injection, schedule: Q04DX003 (ip), vehicle: Klucel (hydroxypropylcellulose) (HPC) 96 % of control

CC(=O)c1nnn(-c2ccccc2)n1
inactive: dose: 100.0 mg/kg/injection, schedule: Q01DX001 (ip), vehicle: other 95 % of control and 109 % of control | dose: 200.0 mg/kg/injection, schedule: Q01DX001 (ip), vehicle: other 95 % of control and 101 % of control | dose: 400.0 mg/kg/injection, schedule: Q01DX001 (ip), vehicle: other 101 % of control

O=C1C2C3CC(c4ccccc43)C2N1S(=O)(=O)Cl (stereo not drawn)
inactive: [1] 105 % of control | [2] 105 % of control | [3] 105 % of control

NNc1ccccc1Cl
inactive: [4] 108 % of control | dose: 75.0 mg/kg/injection, schedule: Q01DX001 (ip), vehicle: other 102 % of control | dose: 100.0 mg/kg/injection, schedule: Q01DX001 (ip), vehicle: carboxymethylcellulose (CMC) 97 % of control | dose: 150.0 mg/kg/injection, schedule: Q01DX001 (ip), vehicle: other 93 % of control | dose: 200.0 mg/kg/injection, schedule: Q01DX001 (ip), vehicle: carboxymethylcellulose (CMC) 108 % of control

CC1=CCCC2(CCC3(C)CC32)C1(C)C (stereo not drawn)
inactive: dose: 100.0 mg/kg/injection, schedule: Q01DX009 (ip), vehicle: acetone 89 % of control | dose: 200.0 mg/kg/injection, schedule: Q01DX009 (ip), vehicle: acetone 95 % of control
